From patent publication US8952024B2, “Herbicidal pyrimidone derivatives” (E I du Pont de Nemours and Company, priority 2009, dated 2015)

Experiments:
Assay in all cases: Test C plant response
Format in all cases: in vivo
Conditions in all cases: Postemergence, scale 0 to 100
[1] = system: bluegrass (annual bluegrass, Poa annua)
In short: (§1)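 Test chemicals were applied in a non-phytotoxic solvent mixture containing a surfactant. After 14 days in a controlled growth environment, injury was rated visually against untreated controls on a 0–100 scale (0 no effect, 100 complete control).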

[2] = system: buckwheat (wild buckwheat, Polygonum convolvulus)
In short: as §1

[3] = system: wild oat (Avena fatua)
In short: as §1

[4] = system: field poppy (Papaver rhoeas)
In short: as §1

[5] = system: kochia (Kochia scoparia)
In short: as §1

[6] = system: winter barley (Hordeum vulgare)
In short: as §1

[7] = system: blackgrass (Alopecurus myosuroides)
In short: as §1

[8] = system: lambsquarters (Chenopodium album)
In short: as §1

[9] = system: chickweed (common chickweed, Stellaria media)
In short: as §1

[10] = system: Russian thistle (Salsola iberica)
In short: as §1

[11] = system: wild mustard (Sinapis arvensis)
In short: as §1

[12] = system: spring wheat (Triticum aestivum)
In short: as §1

[13] = system: galium (catchweed bedstraw, Galium aparine)
In short: as §1

[14] = system: deadnettle (henbit deadnettle, Lamium amplexicaule)
In short: as §1

[15] = system: bromegrass (downy bromegrass, Bromus tectorum)
In short: as §1

[16] = system: canarygrass (Phalaris minor)
In short: as §1

[17] = system: Italian ryegrass (Lolium multiflorum)
In short: as §1

[18] = system: oilseed rape (Brassica napus)
In short: as §1

[19] = system: windgrass (Apera spica-venti)
In short: as §1

[20] = system: winter wheat (Triticum aestivum)
In short: as §1

[21] = system: green foxtail (Setaria viridis)
In short: as §1

[22] = system: spring barley (Hordeum vulgare)
In short: as §1

SMILES: Cc1cc(C)cc(-n2c(-c3ccccc3)ncc(C(=O)C3=C(O)CCCC3=O)c2=O)c1 [Compound 33]
- Plant response rating: Bluegrass ([1]; 31 g ai/ha): 0
- Plant response rating: Bluegrass ([1]; 16 g ai/ha): 0
- Plant response rating: Bluegrass ([1]; 62 g ai/ha): 15
- Plant response rating: Bluegrass ([1]; 125 g ai/ha): 40
- Plant response rating: Buckwheat, Wild ([2]; 31 g ai/ha): 65
- Plant response rating: Buckwheat, Wild ([2]; 16 g ai/ha): 60
- Plant response rating: Buckwheat, Wild ([2]; 62 g ai/ha): 75
- Plant response rating: Buckwheat, Wild ([2]; 125 g ai/ha): 75
- Plant response rating: Oat, Wild ([3]; 31 g ai/ha): 0
- Plant response rating: Oat, Wild ([3]; 16 g ai/ha): 0
- Plant response rating: Oat, Wild ([3]; 62 g ai/ha): 5
- Plant response rating: Oat, Wild ([3]; 125 g ai/ha): 10
- Plant response rating: Field Poppy ([4]; 31 g ai/ha): 80
- Plant response rating: Field Poppy ([4]; 16 g ai/ha): 80
- Plant response rating: Field Poppy ([4]; 62 g ai/ha): 90
- Plant response rating: Field Poppy ([4]; 125 g ai/ha): 98
- Plant response rating: Kochia ([5]; 31 g ai/ha): 50
- Plant response rating: Kochia ([5]; 16 g ai/ha): 35
- Plant response rating: Kochia ([5]; 62 g ai/ha): 60
- Plant response rating: Kochia ([5]; 125 g ai/ha): 70
- Plant response rating: Barley, Winter ([6]; 31 g ai/ha): 0
- Plant response rating: Barley, Winter ([6]; 16 g ai/ha): 0
- Plant response rating: Barley, Winter ([6]; 62 g ai/ha): 0
- Plant response rating: Barley, Winter ([6]; 125 g ai/ha): 5
- Plant response rating: Blackgrass ([7]; 31 g ai/ha): 5
- Plant response rating: Blackgrass ([7]; 16 g ai/ha): 0
- Plant response rating: Blackgrass ([7]; 62 g ai/ha): 35
- Plant response rating: Blackgrass ([7]; 125 g ai/ha): 35
- Plant response rating: Lambsquarters ([8]; 31 g ai/ha): 98
- Plant response rating: Lambsquarters ([8]; 16 g ai/ha): 98
- Plant response rating: Lambsquarters ([8]; 62 g ai/ha): 100
- Plant response rating: Lambsquarters ([8]; 125 g ai/ha): 100
- Plant response rating: Chickweed ([9]; 31 g ai/ha): 90
- Plant response rating: Chickweed ([9]; 16 g ai/ha): 90
- Plant response rating: Chickweed ([9]; 62 g ai/ha): 98
- Plant response rating: Chickweed ([9]; 125 g ai/ha): 100
- Plant response rating: Russian Thistle ([10]; 31 g ai/ha): 80
- Plant response rating: Russian Thistle ([10]; 16 g ai/ha): 80
- Plant response rating: Russian Thistle ([10]; 62 g ai/ha): 90
- Plant response rating: Russian Thistle ([10]; 125 g ai/ha): 90
- Plant response rating: Mustard, Wild ([11]; 31 g ai/ha): 98
- Plant response rating: Mustard, Wild ([11]; 16 g ai/ha): 98
- Plant response rating: Mustard, Wild ([11]; 62 g ai/ha): 98
- Plant response rating: Mustard, Wild ([11]; 125 g ai/ha): 100
- Plant response rating: Wheat, Spring ([12]; 31 g ai/ha): 10
- Plant response rating: Wheat, Spring ([12]; 16 g ai/ha): 10
- Plant response rating: Wheat, Spring ([12]; 62 g ai/ha): 10
- Plant response rating: Wheat, Spring ([12]; 125 g ai/ha): 10
- Plant response rating: Galium ([13]; 31 g ai/ha): 40
- Plant response rating: Galium ([13]; 16 g ai/ha): 35
- Plant response rating: Galium ([13]; 62 g ai/ha): 50
- Plant response rating: Galium ([13]; 125 g ai/ha): 60
- Plant response rating: Deadnettle ([14]; 31 g ai/ha): 98
- Plant response rating: Deadnettle ([14]; 16 g ai/ha): 95
- Plant response rating: Deadnettle ([14]; 62 g ai/ha): 98
- Plant response rating: Deadnettle ([14]; 125 g ai/ha): 100
- Plant response rating: Bromegrass, Downy ([15]; 31 g ai/ha): 10
- Plant response rating: Bromegrass, Downy ([15]; 16 g ai/ha): 0
- Plant response rating: Bromegrass, Downy ([15]; 62 g ai/ha): 15
- Plant response rating: Bromegrass, Downy ([15]; 125 g ai/ha): 20
- Plant response rating: Canarygrass ([16]; 31 g ai/ha): 0
- Plant response rating: Canarygrass ([16]; 16 g ai/ha): 0
- Plant response rating: Canarygrass ([16]; 62 g ai/ha): 5
- Plant response rating: Canarygrass ([16]; 125 g ai/ha): 5
- Plant response rating: Ryegrass, Italian ([17]; 31 g ai/ha): 0
- Plant response rating: Ryegrass, Italian ([17]; 16 g ai/ha): 0
- Plant response rating: Ryegrass, Italian ([17]; 62 g ai/ha): 10
- Plant response rating: Ryegrass, Italian ([17]; 125 g ai/ha): 10
- Plant response rating: Oilseed Rape ([18]; 31 g ai/ha): 98
- Plant response rating: Oilseed Rape ([18]; 16 g ai/ha): 90
- Plant response rating: Oilseed Rape ([18]; 62 g ai/ha): 100
- Plant response rating: Oilseed Rape ([18]; 125 g ai/ha): 100
- Plant response rating: Windgrass ([19]; 31 g ai/ha): 20
- Plant response rating: Windgrass ([19]; 16 g ai/ha): 0
- Plant response rating: Windgrass ([19]; 62 g ai/ha): 25
- Plant response rating: Windgrass ([19]; 125 g ai/ha): 40
- Plant response rating: Wheat, Winter ([20]; 31 g ai/ha): 0
- Plant response rating: Wheat, Winter ([20]; 16 g ai/ha): 0
- Plant response rating: Wheat, Winter ([20]; 62 g ai/ha): 5
- Plant response rating: Wheat, Winter ([20]; 125 g ai/ha): 5
- Plant response rating: Foxtail, Green ([21]; 31 g ai/ha): 95
- Plant response rating: Foxtail, Green ([21]; 16 g ai/ha): 80
- Plant response rating: Foxtail, Green ([21]; 62 g ai/ha): 95
- Plant response rating: Foxtail, Green ([21]; 125 g ai/ha): 95
- Plant response rating: Barley, Spring ([22]; 31 g ai/ha): 0
- Plant response rating: Barley, Spring ([22]; 16 g ai/ha): 0
- Plant response rating: Barley, Spring ([22]; 62 g ai/ha): 0
- Plant response rating: Barley, Spring ([22]; 125 g ai/ha): 0
